Reference: patent publication US8541379B2 (Ajinomoto Co., Inc., priority 2009, dated 2013)

Biological target: T1, human CaSR (Homo sapiens, UniProt P41180, E1011Q)
T1 construct: expressed in transfected cells; host or cells: 293E cells (EBNA1-expressing HEK293, ATCC CRL-10852), transient transfection with Fugene6
T1 sequence (P41180 20-1078 E1011Q): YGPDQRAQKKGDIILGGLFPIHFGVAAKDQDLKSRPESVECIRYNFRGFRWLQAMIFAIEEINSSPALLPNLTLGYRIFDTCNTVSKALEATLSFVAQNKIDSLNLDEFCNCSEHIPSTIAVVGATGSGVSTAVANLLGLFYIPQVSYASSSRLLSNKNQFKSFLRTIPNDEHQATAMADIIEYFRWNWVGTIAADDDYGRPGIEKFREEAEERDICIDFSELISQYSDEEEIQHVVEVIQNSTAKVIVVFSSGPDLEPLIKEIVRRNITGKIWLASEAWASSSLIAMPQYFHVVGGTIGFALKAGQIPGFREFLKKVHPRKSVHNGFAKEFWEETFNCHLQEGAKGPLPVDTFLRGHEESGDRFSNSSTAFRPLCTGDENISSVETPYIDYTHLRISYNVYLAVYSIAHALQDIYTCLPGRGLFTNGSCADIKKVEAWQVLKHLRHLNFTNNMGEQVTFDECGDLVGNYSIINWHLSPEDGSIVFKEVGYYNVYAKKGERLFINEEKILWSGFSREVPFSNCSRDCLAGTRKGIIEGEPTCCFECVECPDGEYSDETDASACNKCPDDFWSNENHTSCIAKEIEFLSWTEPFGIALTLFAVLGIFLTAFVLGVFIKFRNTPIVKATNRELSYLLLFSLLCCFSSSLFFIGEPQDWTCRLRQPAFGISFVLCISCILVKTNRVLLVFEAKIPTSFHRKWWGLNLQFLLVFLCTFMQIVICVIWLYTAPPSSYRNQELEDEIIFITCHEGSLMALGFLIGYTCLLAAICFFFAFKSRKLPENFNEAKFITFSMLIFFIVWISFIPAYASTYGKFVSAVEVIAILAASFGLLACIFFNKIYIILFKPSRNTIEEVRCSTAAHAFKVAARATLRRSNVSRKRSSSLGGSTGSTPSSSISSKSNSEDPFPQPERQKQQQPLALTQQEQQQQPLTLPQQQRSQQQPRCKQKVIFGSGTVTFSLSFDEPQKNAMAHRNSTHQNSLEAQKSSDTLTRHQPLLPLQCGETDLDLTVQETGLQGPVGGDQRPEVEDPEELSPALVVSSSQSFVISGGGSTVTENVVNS
Test: Evaluation of CaSR agonist activity (Ca2+ fluorescence, hCaSR-transfected 293E cells)
Type: cell-based
Description: 293E Cells (EBNA1-expresion HEK293 cells, ATCC No. CRL-10852) were cultivated in DMEN/Ham's-F12 (3.15/mL glucose-containing Dulbecco's modified Eagle medium, available from Nakaraitesk Company) supplemented with 10% fetal calf serum, in the presence of 200 μg/mL of G418 (available from Genetisin). The cultured cells were inoculated in F25 flask at a density of 3×10^6 cells/10 mL, the flask was allowed to stand over 24 hours in a CO2 incubator (5% CO2, 37° C.), and then the human CaSR-expression plasmid hCaSR/pcDNA3.1 was transformed or transfected with a reagent for transfection Fugene6 (available from Roche Company). The transfected plasmid was maintained in a CO2 incubator for 6 to 7 hours, then the cells were recovered using a 10% fetal calf serum-containing DMEM/Ham's-F12 and the cells were inoculated in each well of a poly-D-lysine coat 96-well plate (BD-Biocoat) at a density of 70,000 cells/well.
To each well of the 96-well plate, each test compound was dissolved in a 0.1% BSA-containing Assay Buffer in an amount of 50 μl/well, and then any change of the intensity of fluorescence was monitored over 3 minutes using FLEX Station (available from Molecular Devices Company).
Method for the Determination of EC50:
The difference (RFU (Max-Min)) between the maximum and minimum fluorescent intensities observed for each well before and after the addition of each specific test compound was determined by the automatic calculation using FLEX Station. The activity rate was calculated while the RFU (Max-Min) value observed when adding the compound at the maximum concentration was defined to be 100% and the RFU (Max-Min) value observed when using the 0.1% BSA-containing Assay Buffer free of any test compound was defined to be 0%, followed by subjecting the resulting data to the curve-fitting procedures using the spreadsheet software Xfit or Graph-Pad-Prism to thus determine the EC50 which was the concentration of the compound at the activity rate of 50%.
In addition, the same EC50-determining procedures used above were repeated except for using other dipeptides as Comparative Examples.

With `CCC[C@H](NC(=O)CC[C@H](N)C(=O)O)C(=O)O` [γ-Glu-Nva, γ-L-glutamyl-L-norvaline] the EC50 (293E cells transfected with hCaSR/pcDNA3.1, Calcium 4 fluorescence, FLEX Station) was 120 nM and the CaSR agonist activity (compared with other dipeptides) was “strong CaSR agonist activity comparable to that observed for γ-Glu-Cys”.
